# In US20120251628A1, “COMPOSITIONS AND METHODS FOR TREATMENT OF CANCER” (priority 2011, published 2012):
# Columns and labels:
# Type in all cases: cell-based, Human
# HUVECs = assay: Cytotoxicity test of HUVECs (CellTiter 96 Aqueous One Solution)
# Method: To determine the effect, if any, of sodium meta arsenite on vascularization, the effect on endothelial cells (which are essential for vascularization) was first analyzed. Human umbilical cord vein endothelial cells (HUVECs offered by ATCC) were cultivated in 96-well microculture plates containing F-12K (Sigma) medium supplemented with 10% FBS and endothelial cell growth supplement (ECGS, E2759, Sigma). For the cytotoxicity test of the cells after 24 hour cultivation, the cells were treated with KML001 at the concentration of 0.1 nM, 1 nM, 10 nM, 1 uM, 10 uM and 100 uM. At 24 hours and 48 hours after treatment, 20 μl/well of CellTiter 96® Aqueous One Solution (by Promega) Reagent was added on each well and reacted for one hour at 37° C. The reacted 96-well plates were measured at 490 nm using a spectrophotometer (UVStar, Greiner Bio-One). To analyze apoptosis of HUVECs, the cells were cultivated on F25 flasks using the same method as discussed above and then the cells were treated with sodium meta arsenite at a concentration of 10 uM, 20 uM and 50 uM. Cells were collected after 24 and 48 hours. The collected cells were stained for 30 minutes with Annexin-V for FACS analysis. After two washes, the cells were analyzed by using flow cytometry (FACSCALIBUR, BECTON DICLINSON).
# β-tubulin = assay: Western blot of total tubulin protein from HUVECs; conditions: 5, 10, 20 and 50 uM, 24 and 48 hours, higher concentration
# Method: (§1) To analyze the change in the overall expression of tubulin, the total amount of tubulin protein was kept to identify by western blotting. HUVECs were cultured in F25 culture flasks containing F-12K (Sigma) medium supplemented with 10% FBS and endothelial cell growth supplement (ECGS, E2759, Sigma). After cultivation for 24 hours, the cells were treated with sodium meta arsenite at concentrations of 5 uM, 10 uM, 20 uM and 50 uM. At 24 hours and 48 hours after treatment, the cells were collected and washed with phosphate buffered saline (PBS) solution. The washed cells were reacted with THF solution (50 mM Tris-Hcl, pH 7.5, 100 mM NaCl, 2 mM EDTA, 1% NP-40, protease inhibitor) at 4° C. for 15 minutes and then broken down or destroyed by use of an ultrasonic cell crusher before SDS (0.5%) was added. Protein from the samples was assayed by using a BCA protein kit (Thermo, 23227) before the same amount of protein (3 μg) was mixed with protein sample buffer. […] warmed up in a water bath in boiling water at 100° C. for five minutes. SDS-PAGE was conducted using a 10% polyacrylamide gel. At the end of electrophoresis, the gel was transferred to nitrocellulose membrane in semi-dry method at room temperature at 220 mA for 40 minutes. […]
# α-tubulin = assay: Western blot of total tubulin protein from HUVECs; conditions: 5, 10, 20 and 50 uM, 24 and 48 hours, higher concentration
# Method: as §1
smiles,measurement,setting,value
O=[As][O-].[Na+] [sodium meta arsenite],concentration at which cytotoxicity was observed,"HUVECs; 24 and 48 hours after treatment, tested 0.1 nM to 100 uM",10 µM
same,cytotoxicity over time,HUVECs; 24 hours vs 48 hours,significantly increased over time
same,protein level of β-tubulin,β-tubulin,reduced the protein level
same,protein level of α-tubulin,α-tubulin,reduced the protein level
